# Data taken from patent US20110201564A1, “SUBSTITUTED 7-SULFANYLMETHYL, 7-SULFINYLMETHYL AND 7-SULFONYLMETHYL INDOLES AND USE THEREOF” (BAYER SCHERING PHARMA AKTIENGESELLSCHAFT, priority 2008, published 2011).
# Like-named read-outs stand apart in the source and are kept apart here.
# Assays:
# [1] = target: T1, CYP3A4 (Homo sapiens, UniProt P08684); experiment: CYP inhibition assay with human liver microsomes; assay type: in vitro ADME
# T1 construct: using human liver microsomes (pool from various individuals); from tissue; host or cells: human liver microsomes (pool from various individuals)
# Source text: Inhibitory properties of an active ingredient on the cytochromes P450 (CYP) of the human body may entail extensive clinical effects (drug interactions) because most of the prescribed medicaments are degraded (metabolized) by these enzymes. The ones involved in this are in particular the CYP isoenzymes of the 1A and 2C families, CYP2D6 and, with a proportion of almost 50%, CYP3A4. In order to preclude or minimize these possible drug interactions (Drug-Drug Interactions, DDI), the ability of substances to be able to inhibit CYP1A2, CYP2C8, CYP2C9, CYP2D6 and CYP3A4 in humans is investigated using human liver microsomes (pool from various individuals). This takes place by measuring CYP isoform-specific metabolites formed from standard substrates such as, for example, phenacetin, amodiaquin, diclofenac, dextromethorphan, midazolam and testosterone. The inhibitory effects are investigated at six different concentrations of the test compounds (1.5, 3.1, 6.3, 12.5, 25 and 50 μM as maximum concentration or 0.6, 1.3, 2.5, 5, 10 and 20 μM as maximum concentration), comparing with the extent of the CYP isoform-specific metabolite formation of the standard substrates in the absence of the test compounds, and calculating the corresponding IC50 values. CYP isoform-specific standard inhibitors such as, for example, fluvoxamine, quercetin, sulfaphenazole, fluoxetine and ketoconazole serve as control of the results obtained. In order to obtain indications of the possible mechanism-based inhibitors (MBI) on CYP3A4, the human liver microsomes are incubated in the presence of the inhibitor to be investigated for 30 minutes before the addition of midazolam or testosterone as standard substrates of CYP3A4. A reduction in the IC50 obtained by comparison with the mixture without preincubation serves as an indicator of a mechanism-based inhibition. Mibefradil serves as positive control.
# The incubations of the standard substrates with human liver microsomes (23-233 μg/mL) in the presence of the test compound (as potential inhibitor) are carried out in 96-well plates in a workstation (Tecan, Genesis, Crailsheim, Germany) at 37° C. The incubation times are 15-20 minutes. The test compounds are preferably dissolved in acetonitrile (1.0 or 2.5 mM stock solution). The 96-well plates are produced by sequential addition of a stock solution of NADP+, EDTA, glucose 6-phosphate and glucose-6-phosphate dehydrogenase in phosphate buffer (pH 7.4), the test compound, and a solution of standard substrate and human liver microsomes in phosphate buffer (pH 7.4). The total volume is 200 μl. The corresponding control incubations with and without standard inhibitor also take place on the 96-well plate. The incubations are stopped after the respective incubation time by adding 100 μl of acetonitrile in which there is a suitable internal standard. Precipitated proteins are removed by centrifugation (3000 rpm, 10 minutes, 10° C.). The resulting supernatants of the respective plates are combined on one plate and analyzed by LC-MS/MS. The […] values are generated from the resulting measured data and used to assess the inhibitory potential of the test compound.
# [2] = target: T2, human mineralocorticoid receptor (MR) (Homo sapiens, UniProt P08235); experiment: Cellular in vitro assay, GAL4-MR chimera luciferase reporter in CHO K1 cells (inhibitory MR activity); assay type: cell-based; conditions: antagonism vs aldosterone; CHO K1 GAL4-MR LBD luciferase reporter
# T2 construct: expressed in transfected cells; host or cells: CHO K1
# T2 sequence (P08235 734-984 limits assumed): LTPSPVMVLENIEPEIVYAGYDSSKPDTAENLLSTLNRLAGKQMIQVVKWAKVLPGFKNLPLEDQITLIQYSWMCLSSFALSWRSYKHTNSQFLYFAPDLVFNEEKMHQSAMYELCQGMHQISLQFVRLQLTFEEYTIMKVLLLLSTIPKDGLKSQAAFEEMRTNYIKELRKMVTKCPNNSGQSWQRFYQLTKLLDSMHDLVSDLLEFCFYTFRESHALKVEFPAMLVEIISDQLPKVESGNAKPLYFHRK
# Source text: (§1) 1. Cellular In Vitro Assay to Determine the Inhibitory MR Activity and MR Selectivity Compared with Other Steroid Hormone Receptors
# (§2) Antagonists of the human mineralocorticoid receptor (MR) are identified, and the activity of the compounds described herein is quantified with the aid of a recombinant cell line. The cell is originally derived from a hamster ovary epithelial cell (Chinese Hamster Ovary, CHO K1, ATCC: American Type Culture Collection, VA 20108, USA).
# (§3) An established chimera system in which the ligand-binding domains of human steroid hormone receptors are fused to the DNA-binding domain of the yeast transcription factor GAL4 is used in this CHO K1 cell line. The GAL4-steroid hormone receptor chimeras produced in this way are cotransfected and stably expressed with a reporter construct in the CHO cells.
# (§4) To generate the GAL4-steroid hormone receptor chimeras, the GAL4 DNA-binding domain (amino acids 1-147) from the vector pFC2-dbd (from Stratagene) is cloned with the PCR-amplified ligand-binding domains of the mineralocorticoid receptor (MR, amino acids 734-985), of the progesterone receptor (PR, amino acids 680-933) and of the androgen receptor (AR, amino acids 667-919) into the vector pIRES2 (from Clontech). The reporter construct, which comprises five copies of the GAL4 binding site upstream of a thymidine kinase promoter, leads to expression of firefly luciferase (Photinus pyralis) after activation and binding of the GAL4-steroid hormone receptor chimeras by the respective specific agonists aldosterone (MR), dexamethasone (GR), progesterone (PR) and dihydrotestosterone (AR).
# (§5) The MR, PR and AR cells are plated out in medium (Optimem, 2.5% FCS, 2 mM glutamine, 10 mM HEPES) in 96- (or 384- or 1536-)well microtiter plates on the day before the assay and are kept in a cell incubator (96% humidity, 5% v/v CO2, 37° C.). On the day of the assay, the substances to be tested are taken up in the abovementioned medium and added to the cells. About 10 to 30 minutes after addition of the test substances, the respective specific agonists of the steroid hormone receptors are added. After a further incubation time of 5 to 6 hours, the luciferase activity is measured with the aid of a video camera. The measured relative light units as a function of the substance concentration result in a sigmoidal stimulation curve. The IC50 values are calculated with the aid of the GraphPad PRISM computer program (Version 3.02).
# [3] = target: T3, progesterone receptor (PR) (Homo sapiens, UniProt P06401); experiment: Cellular in vitro assay, GAL4-PR chimera luciferase reporter in CHO K1 cells (selectivity); assay type: cell-based; conditions: antagonism vs progesterone; CHO K1 GAL4-PR LBD luciferase reporter
# T3 construct: of the progesterone receptor (PR, amino acids 680-933); expressed in transfected cells; host or cells: CHO K1
# T3 sequence (P06401 680-933): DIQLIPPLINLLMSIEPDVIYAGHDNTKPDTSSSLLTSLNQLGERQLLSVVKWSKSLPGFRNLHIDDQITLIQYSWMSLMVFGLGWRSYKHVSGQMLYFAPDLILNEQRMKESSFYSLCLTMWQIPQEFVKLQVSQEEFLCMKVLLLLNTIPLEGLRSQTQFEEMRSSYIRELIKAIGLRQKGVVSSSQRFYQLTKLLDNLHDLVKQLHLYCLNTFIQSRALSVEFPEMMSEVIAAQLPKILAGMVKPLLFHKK
# Source text: as §1, §2, §3, §4, §5
# [4] = target: T4, androgen receptor (AR) (Homo sapiens, UniProt P10275); experiment: Cellular in vitro assay, GAL4-AR chimera luciferase reporter in CHO K1 cells (selectivity); assay type: cell-based; conditions: antagonism vs dihydrotestosterone; CHO K1 GAL4-AR LBD luciferase reporter
# T4 construct: of the androgen receptor (AR, amino acids 667-919); expressed in transfected cells; host or cells: CHO K1
# T4 sequence (P10275 668-920): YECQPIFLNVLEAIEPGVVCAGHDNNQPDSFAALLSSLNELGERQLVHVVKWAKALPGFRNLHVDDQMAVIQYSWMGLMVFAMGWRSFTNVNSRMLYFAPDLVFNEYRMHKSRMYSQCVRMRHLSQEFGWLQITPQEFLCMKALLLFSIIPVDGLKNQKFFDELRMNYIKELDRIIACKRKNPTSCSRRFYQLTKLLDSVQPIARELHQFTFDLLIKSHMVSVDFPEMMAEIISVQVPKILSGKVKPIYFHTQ
# Source text: as §1, §2, §3, §4, §5
# [5] = 30 min preincubation with test compound before substrate, read-out: CYP 3A4 Preincubation, 30 min.
# [6] = without preincubation, read-out: CYP 3A4 Coincubation
# T1 sequence (P08684 whole entry): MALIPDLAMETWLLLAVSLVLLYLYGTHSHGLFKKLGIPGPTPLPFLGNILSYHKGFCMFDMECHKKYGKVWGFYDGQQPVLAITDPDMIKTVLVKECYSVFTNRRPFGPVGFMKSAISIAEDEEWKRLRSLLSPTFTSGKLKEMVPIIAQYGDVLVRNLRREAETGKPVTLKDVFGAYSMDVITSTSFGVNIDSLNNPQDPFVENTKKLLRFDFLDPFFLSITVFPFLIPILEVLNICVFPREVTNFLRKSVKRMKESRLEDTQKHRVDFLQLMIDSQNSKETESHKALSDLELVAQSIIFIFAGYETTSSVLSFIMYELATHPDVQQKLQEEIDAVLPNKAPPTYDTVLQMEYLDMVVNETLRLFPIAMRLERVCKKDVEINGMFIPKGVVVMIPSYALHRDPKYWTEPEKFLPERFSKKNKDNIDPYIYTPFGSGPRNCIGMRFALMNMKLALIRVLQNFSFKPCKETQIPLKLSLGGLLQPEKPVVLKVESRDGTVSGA
"IC50 [1, 5]","IC50 [1, 6]",IC50 [2],IC50 [3],IC50 [4],SMILES
> 20 µM,> 20 µM,0.17 µM,–,–,"CS(=O)(=O)Cc1cccc2c(C(c3ccc(C(F)(F)F)cc3)C3CC3)c[nH]c12 (stereo not shown) [Example 244, 3-{Cyclopropyl[4-(trifluoromethyl)phenyl]methyl}-7-[(methylsulfonyl)methyl]-1H-indole]"
–,–,0.12 µM,8.13 µM,6.94 µM,"C[S+]([O-])Cc1cccc2c(C(C)(c3ccc(Cl)cc3F)C3CC3)c[nH]c12 (mixture of isomers) [Example 124, 3-[1-(4-Chloro-2-fluorophenyl)-1-cyclopropylethyl]-7-[(methylsulfinyl)methyl]-1H-indole]"
–,–,0.1 µM,1.93 µM,2.03 µM,"CSCc1cc(F)cc2c(C(C)(c3ccc(Cl)cc3)C3CC3C#N)c[nH]c12 (stereo not shown) [Example 179, 2-[1-(4-Chlorophenyl)-1-{5-fluoro-7-[(methylsulfanyl)methyl]-1H-indol-3-yl}ethyl]cyclopropanecarbonitrile]"
–,–,0.042 µM,8.12 µM,2.73 µM,"CS(=O)(=O)Cc1cccc2c(C3(C4CC4)CCOc4cc(F)cc(F)c43)c[nH]c12 (stereo not shown) [Example 219, 3-(4-Cyclopropyl-5,7-difluoro-3,4-dihydro-2H-chromen-4-yl)-7-[(methylsulfonyl)methyl]-1H-indole]"
–,–,0.27 µM,10 µM,6.6 µM,"CCC(CCO)(c1ccc(Cl)cc1)c1c[nH]c2c(CSC)cccc12 (stereo not shown) [Example 140, 3-(4-Chlorophenyl)-3-{7-[(methylsulfanyl)methyl]-1H-indol-3-yl}pentan-1-ol]"
–,–,0.46 µM,10 µM,5.24 µM,"CSCc1cccc2c(C(c3ccc(F)cc3)c3ccc(Cl)cc3)c[nH]c12 (stereo not shown) [Example 100, 3-[(4-Chlorophenyl)(4-fluorophenyl)methyl]-7-[(methylsulfanyl)methyl]-1H-indole]"
–,–,0.016 µM,1.51 µM,1.12 µM,"CSCc1cccc2c(C(CCC#N)c3ccc(Cl)cc3F)c[nH]c12 (single isomer, unassigned) [Example 38-1, 4-(4-Chloro-2-fluorophenyl)-4-{7-[(methylsulfanyl)methyl]-1H-indol-3-yl}butanonitrile]"
–,–,0.21 µM,5.81 µM,7.53 µM,"C[S+]([O-])Cc1cc(F)cc2c(C(CCC#N)c3ccc(Cl)cc3Cl)c[nH]c12 (mixture of isomers) [Example 82, 4-(2,4-Dichlorophenyl)-4-{5-fluoro-7-[(methylsulfinyl)methyl]-1H-indol-3-yl}butanonitrile]"

# Second part, the molecule before the results:
SMILES,"IC50 [1, 5]","IC50 [1, 6]",IC50 [2],IC50 [3],IC50 [4]
"Cc1ccc(C(CCC#N)c2c[nH]c3c(CS(C)(=O)=O)cccc23)cc1 (stereo not shown) [Example 166, 4-(4-Methylphenyl)-4-{7-[(methylsulfonyl)methyl]-1H-indol-3-yl}butanonitrile]",17.6 µM,> 20 µM,0.22 µM,10 µM,–
"CS(=O)(=O)Cc1cc(F)cc2c(C(CCC#N)c3ccc(Cl)cc3Cl)c[nH]c12 (stereo not shown) [Example 63, 4-(2,4-Dichlorophenyl)-4-{5-fluoro-7-[(methylsulfonyl)methyl]-1H-indol-3-yl}butanonitrile]",–,–,0.04 µM,4.81 µM,3.76 µM
"CSCc1cc(F)cc2c(C(c3ccc(C)cc3)C3CC3C#N)c[nH]c12 (stereo not shown) [Example 260, 2-[{5-Fluoro-7-[(methylsulfanyl)methyl]-1H-indol-3-yl}(4-methylphenyl)methyl]cyclopropane-carbonitrile]",–,–,0.039 µM,5.23 µM,9.03 µM
"CS(=O)(=O)Cc1cccc2c(C(CCCC#N)c3ccc(Cl)cc3)c[nH]c12 (stereo not shown) [Example 70, 5-(4-Chlorophenyl)-5-{7-[(methylsulfonyl)methyl]-1H-indol-3-yl}pentanonitrile]",–,–,0.25 µM,7.75 µM,9.66 µM
"CS(=O)(=O)Cc1cccc2c(C(CCC#N)c3ccc(C(F)(F)F)cc3F)c[nH]c12 (stereo not shown) [Example 68, 4-[2-Fluoro-4-(trifluoromethyl)phenyl]-4-{7-[(methylsulfonyl)methyl]-1H-indol-3-yl}butanonitrile]",–,–,0.19 µM,3.91 µM,5.07 µM
"CS(=O)(=O)Cc1cccc2c(C(c3ccc(F)cc3)c3ccc(Cl)cc3)c[nH]c12 (single isomer, unassigned) [Example 114-2, 3-[(4-Chlorophenyl)(4-fluorophenyl)methyl]-7-[(methylsulfonyl)methyl]-1H-indole]",–,–,0.22 µM,6.55 µM,1.23 µM
"CS(=O)(=O)Cc1c(F)ccc2c(C(CCC#N)c3ccc(Cl)cc3)c[nH]c12 (stereo not shown) [Example 71, 4-(4-Chlorophenyl)-4-{6-fluoro-7-[(methylsulfonyl)methyl]-1H-indol-3-yl}butanonitrile]",–,–,0.32 µM,4.47 µM,3.99 µM
